Usually IC50 stands for the midpoint of a concentration-inhibition curve.

A value given as a limit tells only on which side of the number the result lay.

For one assay, the target named is T1, Recombinant human cathepsin A (Homo sapiens, UniProt P10619).
T1 construct: Recombinant human cathepsin A (residues 29-480, with a C-terminal 10-His tag); 10-His (C); purchased R&D Systems 1049-SE
T1 sequence (P10619 29-312 limits assumed): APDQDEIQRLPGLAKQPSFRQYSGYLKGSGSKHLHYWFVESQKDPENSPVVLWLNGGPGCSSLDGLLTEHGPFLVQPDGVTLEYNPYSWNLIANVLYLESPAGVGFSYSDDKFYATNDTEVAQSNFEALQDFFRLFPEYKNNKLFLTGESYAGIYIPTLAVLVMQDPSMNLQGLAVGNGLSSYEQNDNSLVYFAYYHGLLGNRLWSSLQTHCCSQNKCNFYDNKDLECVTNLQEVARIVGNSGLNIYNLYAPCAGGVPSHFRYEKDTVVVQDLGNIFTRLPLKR
T1 sequence (P10619 327-480 limits assumed): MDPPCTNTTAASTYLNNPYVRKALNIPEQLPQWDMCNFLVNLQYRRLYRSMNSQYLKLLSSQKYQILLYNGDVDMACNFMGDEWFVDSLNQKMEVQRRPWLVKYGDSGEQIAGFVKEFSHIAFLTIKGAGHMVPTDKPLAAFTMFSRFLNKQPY
Put plainly: Cathepsin A inhibitory activity. It is filed as biochemical. The conditions noted are these: pharmacological test "Cathepsin A inhibitory activity"; IC50 given as class A/B/C; read-out: Activity (2): Cathepsin A inhibitory activity, IC50 class. Put shortly:
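Read-out was microfluidic separation of cleaved vs. uncleaved Bodipy FL-bradykinin (2 μM), giving turnover, % inhibition and IC50. Compound and 833 ng/ml enzyme met for 15 min RT in pH 5.5 MES/DTT before substrate (15 min RT). The 29-480 His-tagged human enzyme was first activated by cathepsin L, then E-64 (10 μM).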
As for `O=C(O)CC(NC(=O)c1cc(O)n(-c2ccc(F)cc2F)n1)c1cccc2c1OCO2` (stereo not shown) [Example 174], the IC50 was in the range of 100 to 1000 nM.
Still for that read-out and setting: with `COc1cccc(-c2ccc(C(CC(=O)O)NC(=O)c3cc(O)n(-c4ccccc4Cl)n3)cc2)c1` (stereo not shown) [Example 157] the figure was 100 to 1000 nM; with `COc1ccc(Cl)cc1C(CC(=O)O)NC(=O)c1cc(O)n(-c2ccccc2F)n1` (stereo not shown) [Example 234], 100 to 1000 nM.
On the same count and under the same terms, the result for `O=C(O)C[C@H](NC(=O)c1cc(O)n(-c2ccc(F)cc2F)n1)c1ccccc1C(F)(F)F` [Example 198] reads 100 to 1000 nM; that for `O=C(O)C[C@H](NC(=O)c1cc(O)n(-c2cccc(Cl)c2)n1)c1ccccc1Br` [Example 251], 100 to 1000 nM; that for `O=C(O)CC(NC(=O)c1cc(O)n(-c2ccc(F)cc2F)n1)c1cccc(Cl)c1Cl` (stereo not shown) [Example 186], 100 to 1000 nM.

The assay is the same for the next values; noted with them: read-out: Activity (2): Cathepsin A inhibitory activity (IC50 class).
In the case of `Cc1ccccc1[C@H](CC(=O)O)NC(=O)c1cc(OCCC(C)(C)C)n(-c2ccccc2F)n1` [Example 659], the IC50 was under 100 nM.
On to `O=C(O)CC(NC(=O)c1cc(O)n(-c2ccccc2)n1)c1ccc(-c2ccccc2F)cc1` (stereo not shown) [Example 583], for which the IC50 was 1000 to 30000 nM.
The same measure, in the same setting: with `O=C(O)C[C@H](NC(=O)c1cc(OCC2CC2)n(-c2ccccc2F)n1)c1ccccc1` [Example 685] the figure was under 100 nM.
With `Cc1ccccc1[C@H](CC(=O)O)NC(=O)c1cc(OCc2ccccc2)n(-c2ccccc2F)n1` [Example 651], the IC50 is under 100 nM.
In the case of `Cc1ccccc1[C@H](CC(=O)O)NC(=O)c1cc(OC[C@](C)(O)C(C)(C)C)n(-c2ccccc2F)n1` (single isomer, unassigned) [Example 747], the IC50 was under 100 nM.
Regarding `CCOc1cc(C(=O)NC(CC(=O)O)c2cccc(C)c2C)nn1-c1ccccc1Cl` (stereo not shown) [Example 743], the IC50 was under 100 nM.
For `COc1cc(C(=O)NC(CC(=O)O)c2cc(Cl)ccc2Cl)nn1-c1ccccc1F` (stereo not shown) [Example 683], the IC50 was under 100 nM.
For the compound `CC(C)[C@@](C)(O)COc1cc(C(=O)N[C@@H](CC(=O)O)c2cccc(Cl)c2)nn1-c1ccccc1F` [Example 767], the 50% inhibitory concentration (IC50) is under 100 nM.
The same measure, in the same setting: the result for `Cc1ccccc1[C@H](CC(=O)O)NC(=O)c1cc(OCc2ccccc2C#N)n(-c2ccccc2F)n1` [Example 635, (S)-3-{[5-(2-Cyano-benzyloxy)-1-(2-fluoro-phenyl)-1H-pyrazole-3-carbonyl]-amino}-3-o-tolyl-propionic acid] reads under 100 nM; that for `O=C(O)CC(NC(=O)c1cc(OCC2CC2)n(-c2ccccc2F)n1)c1ccc(F)cc1` (stereo not shown) [Example 698], 100 to 1000 nM.
Still for that read-out and setting: with `Cc1ccc([C@H](CC(=O)O)NC(=O)c2cc(OC[C@@](C)(O)C(C)(C)C)n(-c3ccccc3F)n2)cc1` [Example 781, (S)-3-{[1-(2-Fluoro-phenyl)-5-((S)-2-hydroxy-2,3,3-trimethyl-butoxy)-1H-pyrazole-3-carbonyl]-amino}-3-p-tolyl-propionic acid] the figure was under 100 nM; with `COc1ccc(C(CC(=O)O)NC(=O)c2cc(OC)n(-c3ccccc3F)n2)c(C)c1` (stereo not shown) [Example 672, 3-{[1-(2-Fluoro-phenyl)-5-methoxy-1H-pyrazole-3-carbonyl]-amino}-3-(4-methoxy-2-methyl-phenyl)-propionic acid], under 100 nM.

Staying with this assay, now noted: read-out: Activity (2): Cathepsin A inhibitory activity, IC50 class.
Regarding `O=C(O)CC(NC(=O)c1cc(O)n(-c2cccc(F)c2)n1)c1ccc(Cl)cc1F` (stereo not shown) [Example 320], the IC50 lay in the range of 100 to 1000 nM.
As to `O=C(O)C[C@H](NC(=O)c1cc(O)n(-c2ccc(Cl)cc2)n1)c1ccc(Cl)cc1` [Example 296], the IC50 lay within 100 to 1000 nM.
On the same count and under the same terms, with `O=C(O)C[C@H](NC(=O)c1cc(O)n(-c2ccccc2)n1)c1ccc(Cl)cc1Cl` [Example 95] the figure was 100 to 1000 nM; with `CCCC(CC(=O)O)NC(=O)c1cc(O)n(-c2ccccc2)n1` (stereo not shown) [Example 2], 1000 to 30000 nM.
Still for that read-out and setting: the result for `COc1ccc(C(CC(=O)O)NC(=O)c2cc(O)n(-c3ccc(Cl)cc3)n2)c(OC)c1` (stereo not shown) [Example 273] reads 1000 to 30000 nM; that for `CC(C)(C)Oc1ccc(C(CC(=O)O)NC(=O)c2cc(O)n(-c3ccccc3)n2)cc1` (stereo not shown) [Example 23], 1000 to 30000 nM; that for `O=C(O)C[C@H](NC(=O)c1cc(O)n(-c2ccccc2F)n1)c1ccccc1C(F)(F)F` [Example 119], 100 to 1000 nM.
The same measure, in the same setting: with `O=C(O)C[C@H](NC(=O)c1cc(O)n(-c2ccc(F)cc2)n1)c1ccc(Cl)cc1Cl` [Example 370] the figure was 100 to 1000 nM; with `O=C(O)CC(NC(=O)c1cc(O)n(-c2ccccc2)n1)c1ccc(Cl)c(Cl)c1` (stereo not shown) [Example 62], 100 to 1000 nM.
With `Cc1ccc(C)c(-n2nc(C(=O)NC(CC(=O)O)c3ccc(Cl)cc3)cc2O)c1` (stereo not shown) [Example 45], the IC50 fell in the range of 1000 to 30000 nM.
Same read-out and setting: with `Cc1ccc(C(CC(=O)O)NC(=O)c2cc(O)n(-c3ccccc3)n2)c(C)c1` (stereo not shown) [Example 84] the figure was 100 to 1000 nM.
Still for that read-out and setting: the result for `O=C(O)CC(CCc1ccccc1)NC(=O)c1cc(O)n(-c2ccccc2)n1` (stereo not shown) [Example 15] reads 1000 to 30000 nM; that for `O=C(O)C[C@H](NC(=O)c1cc(O)n(-c2cccc(F)c2)n1)c1cccc(F)c1` [Example 312], 100 to 1000 nM; that for `COc1ccc(C(CC(=O)O)NC(=O)c2cc(O)n(-c3ccc(F)cc3F)n2)c(C)c1` (stereo not shown) [Example 379], 100 to 1000 nM.
Still for that read-out and setting: the result for `COc1ccccc1[C@H](CC(=O)O)NC(=O)c1cc(OC[C@](C)(O)C(C)C)n(-c2ccccc2F)n1` [Example 822, (S)-3-{[1-(2-Fluoro-phenyl)-5-((R)-2-hydroxy-2,3-dimethyl-butoxy)-1H-pyrazole-3-carbonyl]-amino}-3-(2-methoxy-phenyl)-propionic acid] reads under 100 nM; that for `CC(C)[C@](C)(O)COc1cc(C(=O)N[C@H](CC(=O)O)Cc2ccc(C#N)cc2)nn1-c1ccccc1F` [Example 834, (S)-4-(4-Cyano-phenyl)-3-{[1-(2-fluoro-phenyl)-5-((S)-2-hydroxy-2,3-dimethyl-butoxy)-1H-pyrazole-3-carbonyl]-amino}-butyric acid], 1000 to 30000 nM.

The same assay, now with this note: recombinant human cathepsin A 833 ng/ml, Bodipy FL-labeled bradykinin 2 μM, pH 5.5; read-out: CATH-A IC50.
For `O=C(O)CC(NC(=O)c1cc(O)n(-c2ccc(Cl)cc2)n1)c1cc(F)ccc1Cl` (stereo not shown) [Example 470, 3-(2-Chloro-5-fluoro-phenyl)-3-{[1-(4-chloro-phenyl)-5-hydroxy-1H-pyrazole-3-carbonyl]-amino}-propionic acid], the IC50 was 398 nM.
In the case of `O=C(O)CC(NC(=O)c1cc(O)n(-c2ccccc2)n1)c1cc(Cl)ccc1Cl` (stereo not shown) [Example 444, 3-(2,5-Dichloro-phenyl)-3-[(5-hydroxy-1-phenyl-1H-pyrazole-3-carbonyl)-amino]-propionic acid], the IC50 is 83.1 nM.
On the same count and under the same terms, with `Cc1ccccc1[C@H](CC(=O)O)NC(=O)c1cc(OC[C@](C)(O)C(C)(C)C)n(-c2ccccc2F)n1` (single isomer, unassigned) [Example 747] the figure was 14.7 nM; with `Cc1ccc(F)cc1C(CC(=O)O)NC(=O)c1cc(O)n(-c2ccccc2Cl)n1` (stereo not shown) [Example 461, 3-{[1-(2-Chloro-phenyl)-5-hydroxy-1H-pyrazole-3-carbonyl]-amino}-3-(5-fluoro-2-methyl-phenyl)-propionic acid], 151 nM.

Still in this assay, the particulars now being: recombinant human cathepsin A; read-out: Activity (2): Cathepsin A inhibitory activity, IC50 class.
In the case of `O=C(O)CC(NC(=O)c1cc(O)n(-c2ccc(Cl)cc2)n1)c1cc(F)ccc1Cl` (stereo not shown) [Example 470, 3-(2-Chloro-5-fluoro-phenyl)-3-{[1-(4-chloro-phenyl)-5-hydroxy-1H-pyrazole-3-carbonyl]-amino}-propionic acid], the IC50 was in the range of 100 to 1000 nM.
Same read-out and setting: with `O=C(O)CC(NC(=O)c1cc(O)n(-c2ccc(F)cc2F)n1)c1ccc(-c2ccccn2)cc1` (stereo not shown) [Example 501] the figure was under 100 nM; with `O=C(O)CC(NC(=O)c1cc(O)n(-c2ccccc2)n1)c1cc(Cl)ccc1Cl` (stereo not shown) [Example 444, 3-(2,5-Dichloro-phenyl)-3-[(5-hydroxy-1-phenyl-1H-pyrazole-3-carbonyl)-amino]-propionic acid], under 100 nM.
Same read-out and setting: with `COc1cc(C(=O)N[C@@H](CC(=O)N[C@H](CO)C(C)C)c2ccccc2C)nn1-c1ccccc1F` [Example 936, 1-(2-Fluoro-phenyl)-5-methoxy-1H-pyrazole-3-carboxylic acid [(S)-2-((S)-1-hydroxymethyl-2-methyl-propylcarbamoyl)-1-o-tolyl-ethyl]-amide] the figure was under 100 nM; with `Cc1ccc(F)cc1C(CC(=O)O)NC(=O)c1cc(O)n(-c2ccccc2Cl)n1` (stereo not shown) [Example 461, 3-{[1-(2-Chloro-phenyl)-5-hydroxy-1H-pyrazole-3-carbonyl]-amino}-3-(5-fluoro-2-methyl-phenyl)-propionic acid], 100 to 1000 nM.

The values above are taken from patent US8664257B2, “Oxygen-substituted 3-heteroaroylamino-propionic acid derivatives and their use as pharmaceuticals” (Sanofi, priority 2010, dated 2014).
